Legend:
C3H10T1/2 cells = test: Oxygen consumption / uncoupled respiration of cultured mesenchymal stem cells; type: cell-based, mouse
Source text: To determine whether the increased respiration was uncoupled from ATP synthesis, oligomycin-insensitive respiration was first assayed as a measure of uncoupled respiration. Oligomycin inhibits F1 ATP synthetase to suppress only oxidative phosphorylation-associated respiration.

HIB1 cells = test: Differentiation of HIB1 brown preadipocytes (lipid accumulation, mitochondrial biogenesis); type: cell-based; settings: SB408124 1 uM, OX treatment for 5 days
Experimental: To further investigate the role of OX in BAT differentiation, the effect of OX on the preadipocyte cell line HIB1 was evaluated. […] Expression of genes functioning in lipid metabolism and mitochondrial biogenesis was elevated while the anti-adipogenic factors […], Pref1, and Wnt10 were expressed at very low levels (FIG. 16).
HIB1 cells were stably transfected with lentivirus over-expressing orexin (Len-OX) and compared to vector controls in the absence or presence of exogenous OX (100 nM), Cells were cultured for 7 days in the absence of differentiation medium and stained with Oil Red O. By day 6 of adipogenic differentiation, orexin-expressing cells had undergone normal BAT differentiation as scored by lipid accumulation.
Brown fat morphological defects seen in both adult and newborn OXR1 KO mice were similar to those observed in OX KO mice. […] To examine the cellular and molecular consequences of OXR1 depletion, lentiviral vectors were used to express a short hairpin (sh) shRNA targeting OXR1 (shOXR1; Open Biosystems, Inc., catalog no. RMM4431-98766481) or a scrambled shRNA control (Open Biosystems, Inc., catalog no. RHS4346) in HIB1 mesenchymal cells. […] After 5 days of differentiation, cultures expressing the scrambled shRNA control had undergone brown fat differentiation as scored by Oil Red O staining and shown in FIG. 18. […]

[1] = tested on: primary brown preadipocytes; test: Differentiation of primary brown preadipocytes (Oil Red O); type: cell-based, mice; settings: 3 days BMP7 or 100 nM OX, then adipogenic medium
Source text: To assess differentiation of primary brown adipocytes, iBAT preadipocytes were isolated from 1-day-old mice and then differentiated in the presence of OX. Differentiation was confirmed by Oil Red O staining which visualizes lipid accumulation (FIG. 7). […] Taken together. OX activates a full program of brown fat adipogenesis by suppressing adipogenic inhibitors, including BAT regulators, elevating mitochondrial biogenesis and oxygen consumption, and inducing uncoupled respiration.
To investigate whether lack of OXR1 impaired BAT differentiation potential, primary brown preadipocytes from OXR1 knockout mice were isolated and differentiated. Generation of wild-type primary brown preadipocyte cell lines was derived from newborn wild-type mice as described previously by Klein et al. (Bioessays, 24: 382-388, 2002), which is hereby incorporated by reference in its entirety. Brown preadipocytes isolated from C57BL-6 mice served as positive control. All cell lines were maintained in Dulbecco's modified […] medium (DMEM), high glucose, supplemented with 10% FBS at 37° C. in a 5% CO2 environment. To induce adipogenesis, the cells were treated for 3 days with either BMP7 or 100 nM OX, at which time they were confluent. Cells were then incubated in adipogenic medium containing 0.125 mM indomethaein, […] dexamethazone, and […] 3-isobutyl-1-methyxanthine (IBMX) supplemented by 20 nM insulin as described by Tseng et al., (Nature, 454: 1000-1004, 2008) which is hereby incorporated by reference in its entirety.

For `N#CC(C#N)=NNc1ccc(OC(F)(F)F)cc1` [FCCP, reference compound], the “oxygen consumption of unstimulated, differentiated cells, increase” value (C3H10T1/2 cells; in the presence of FCCP) was 6 fold.

`Cc1cc(NC(=O)Nc2ccc(N(C)C)cc2)c2cc(F)cc(F)c2n1` [SB408124, reference compound] was tested, and the OX-dependent mitochondrial biogenesis (HIB1 cells) was “blunted”.

`CC[C@H]1/C=C/C=C/C[C@@H](C)[C@H](O)[C@@](C)(O)C(=O)[C@@H](C)[C@H](O)[C@@H](C)C(=O)[C@@H](C)[C@H](O)[C@@H](C)/C=C/C(=O)O[C@@H]2[C@H](C)[C@H](CC1)O[C@]1(CC[C@H](C)[C@H](C[C@@H](C)O)O1)[C@H]2C` [oligomycin, reference compound] was tested, and the “respiration of unstimulated differentiated cells” value (C3H10T1/2 cells; absence of OX) was “completely suppressed respiration”.

B1: BMP-7: recombinant human BMP-7 (cat. No. 4579, BioVision), a potent inducer of BAT differentiation (protein, UniProt P18075 293-431, looked up)
Bone morphogenetic protein 7: STGSKQRSQNRSKTPKNQEALRMANVAENSSSDQRQACKKHELYVSFRDLGWQDWIIAPEGYAAYYCEGECAFPLNSYMNATNHAIVQTLVHFINPETVPKPCCAPTQLNAISVLYFDDSSNVILKKYRNMVVRACGCH
B1 was tested, and the “differentiation of wild-type preadipocytes based on lipid accumulation” value [1] was “enhanced differentiation” and the “oxygen consumption of treated cells in the presence of oligomycin” value (C3H10T1/2 cells; oligomycin) was “efficiently consumed oxygen”.

From US20120190615A1, “METHODS AND COMPOSITIONS FOR INDUCING WEIGHT LOSS” (Sanford-Burnham Medical Research Institute, priority 2011, published 2012)
